Experimental data reported in the supplement of paper PMC10733146.

Experiments:
Experiment in all cases: viability relative to DMSO control (fraction); higher = less drug effect (more viable cells)
Settings in all cases: 48 h
Palbociclib = compound: CC(=O)c1c(C)c2cnc(Nc3ccc(N4CCNCC4)cn3)nc2n(C2CCCC2)c1=O [Palbociclib]
Procedure, shortened: (§1)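 Viability is given as CellTiter-Glo luminescence relative to the median of 16 inner DMSO wells. Fresh or cryopreserved primary mononuclear tumour cells from blood, bone marrow (both Ficoll-isolated) or processed lymph node were plated at 4 × 10^4 cells per well in 384-well plates against five pre-plated compound concentrations, one well each. Incubation lasted 48 h at 37 °C and 5% CO2 in RPMI-1640 with penicillin/streptomycin, L-glutamine and human serum.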

Navitoclax = compound: CC1(C)CCC(c2ccc(Cl)cc2)=C(CN2CCN(c3ccc(C(=O)NS(=O)(=O)c4ccc(N[C@H](CCN5CCOCC5)CSc5ccccc5)c(S(=O)(=O)C(F)(F)F)c4)cc3)CC2)C1 [Navitoclax]
Procedure, shortened: as §1

I-BET-762 = compound: CCNC(=O)C[C@@H]1N=C(c2ccc(Cl)cc2)c2cc(OC)ccc2-n2c(C)nnc21 [I-BET-762]
Procedure, shortened: as §1

CPI-169 = compound: CCS(=O)(=O)N1CCC([C@@H](C)n2c(C)c(C(=O)NCc3c(OC)cc(C)[nH]c3=O)c3ccccc32)CC1 [CPI-169]
Procedure, shortened: as §1

Roscovitine = compound: CC[C@H](CO)Nc1nc(NCc2ccccc2)c2ncn(C(C)C)c2n1 [Roscovitine]
Procedure, shortened: as §1

[1] = compound: CCc1ccc(/C=C2/SC(=S)NC2=O)cc1
Procedure, shortened: as §1

Everolimus = compound: CO[C@H]1C[C@@H]2CC[C@@H](C)[C@@](O)(O2)C(=O)C(=O)N2CCCC[C@H]2C(=O)O[C@H]([C@H](C)C[C@@H]2CC[C@@H](OCCO)[C@H](OC)C2)CC(=O)[C@H](C)/C=C(\C)[C@@H](O)[C@@H](OC)C(=O)[C@H](C)C[C@H](C)/C=C/C=C/C=C/1C [Everolimus]
Procedure, shortened: as §1

Idasanutlin (RS7388) = compound: COc1cc(C(=O)O)ccc1NC(=O)[C@@H]1N[C@@H](CC(C)(C)C)[C@](C#N)(c2ccc(Cl)cc2F)[C@H]1c1cccc(Cl)c1F [Idasanutlin (RS7388)]
Procedure, shortened: as §1

Etoposide = compound: COc1cc([C@@H]2c3cc4c(cc3[C@@H](O[C@@H]3O[C@@H]5CO[C@@H](C)O[C@H]5[C@H](O)[C@H]3O)[C@H]3COC(=O)[C@H]23)OCO4)cc(OC)c1O [Etoposide]
Procedure, shortened: as §1

Tofacitinib = compound: C[C@@H]1CCN(C(=O)CC#N)C[C@@H]1N(C)c1ncnc2[nH]ccc12 [Tofacitinib]
Procedure, shortened: as §1

Duvelisib = compound: C[C@H](Nc1ncnc2nc[nH]c12)c1cc2cccc(Cl)c2c(=O)n1-c1ccccc1 [Duvelisib]
Procedure, shortened: as §1

Pomalidomide = compound: Nc1cccc2c1C(=O)N(C1CCC(=O)NC1=O)C2=O [Pomalidomide]
Procedure, shortened: as §1

Filgotinib = compound: O=C(Nc1nc2cccc(-c3ccc(CN4CCS(=O)(=O)CC4)cc3)n2n1)C1CC1 [Filgotinib]
Procedure, shortened: as §1

Thalidomide = compound: O=C1CCC(N2C(=O)c3ccccc3C2=O)C(=O)N1 [Thalidomide]
Procedure, shortened: as §1

Test System: primary B-PLL patient cells (S016)
- viability (Palbociclib; 0.024 µM): 0.982
- viability (Palbociclib; 0.12 µM): 0.886
- viability (Palbociclib; 0.6 µM): 0.89
- viability (Palbociclib; 3 µM): 0.625
- viability (Palbociclib; 15 µM): 0.457
- viability (Navitoclax; 0.0032 µM): 1.16
- viability (Navitoclax; 0.016 µM): 1.14
- viability (Navitoclax; 0.08 µM): 0.767
- viability (Navitoclax; 0.4 µM): 0.158
- viability (Navitoclax; 2 µM): 0.0503
- viability (I-BET-762; 0.008 µM): 1.01
- viability (I-BET-762; 0.04 µM): 0.976
- viability (I-BET-762; 0.2 µM): 0.992
- viability (I-BET-762; 1 µM): 0.918
- viability (I-BET-762; 5 µM): 0.639
- viability (CPI-169; 0.024 µM): 0.946
- viability (CPI-169; 0.12 µM): 1.02
- viability (CPI-169; 0.6 µM): 1.04
- viability (CPI-169; 3 µM): 1.01
- viability (CPI-169; 15 µM): 1.2
- viability (Roscovitine; 0.032 µM): 0.927
- viability (Roscovitine; 0.16 µM): 1.05
- viability (Roscovitine; 0.8 µM): 1.02
- viability (Roscovitine; 4 µM): 1.23
- viability (Roscovitine; 20 µM): 1.09
- viability ([1]; 0.024 µM): 0.982
- viability ([1]; 0.12 µM): 0.922
- viability ([1]; 0.6 µM): 1.1
- viability ([1]; 3 µM): 0.971
- viability ([1]; 15 µM): 0.963
- viability (Everolimus; 0.0032 µM): 0.735
- viability (Everolimus; 0.016 µM): 0.647
- viability (Everolimus; 0.08 µM): 0.665
- viability (Everolimus; 0.4 µM): 0.659
- viability (Everolimus; 2 µM): 0.697
- viability (Idasanutlin (RS7388); 0.032 µM): 0.719
- viability (Idasanutlin (RS7388); 0.16 µM): 0.923
- viability (Idasanutlin (RS7388); 0.8 µM): 0.333
- viability (Idasanutlin (RS7388); 4 µM): 0.0502
- viability (Idasanutlin (RS7388); 20 µM): 0.0489
- viability (Etoposide; 0.032 µM): 1.14
- viability (Etoposide; 0.16 µM): 0.886
- viability (Etoposide; 0.8 µM): 0.762
- viability (Etoposide; 4 µM): 0.362
- viability (Etoposide; 20 µM): 0.0933
- viability (Tofacitinib; 0.024 µM): 0.953
- viability (Tofacitinib; 0.12 µM): 0.991
- viability (Tofacitinib; 0.6 µM): 0.994
- viability (Tofacitinib; 3 µM): 1.06
- viability (Tofacitinib; 15 µM): 1.03
- viability (Duvelisib; 0.0016 µM): 0.788
- viability (Duvelisib; 0.008 µM): 0.821
- viability (Duvelisib; 0.04 µM): 0.708
- viability (Duvelisib; 0.2 µM): 0.675
- viability (Duvelisib; 1 µM): 0.674
- viability (Pomalidomide; 0.0032 µM): 1.17
- viability (Pomalidomide; 0.016 µM): 1.3
- viability (Pomalidomide; 0.08 µM): 1.15
- viability (Pomalidomide; 0.4 µM): 0.926
- viability (Pomalidomide; 2 µM): 0.962
- viability (Filgotinib; 0.024 µM): 0.977
- viability (Filgotinib; 0.12 µM): 1
- viability (Filgotinib; 0.6 µM): 0.977
- viability (Filgotinib; 3 µM): 1.2
- viability (Filgotinib; 15 µM): 0.221
- viability (Thalidomide; 0.032 µM): 0.947
- viability (Thalidomide; 0.16 µM): 0.931
- viability (Thalidomide; 0.8 µM): 1.04
- viability (Thalidomide; 4 µM): 1.05
- viability (Thalidomide; 20 µM): 1.04

Test System: primary BL patient cells (S005)
- viability (Palbociclib; 0.024 µM): 0.948
- viability (Palbociclib; 0.12 µM): 1.16
- viability (Palbociclib; 0.6 µM): 0.873
- viability (Palbociclib; 3 µM): 1.06
- viability (Palbociclib; 15 µM): 0.825
- viability (Navitoclax; 0.0032 µM): 1.1
- viability (Navitoclax; 0.016 µM): 0.999
- viability (Navitoclax; 0.08 µM): 1.11
- viability (Navitoclax; 0.4 µM): 1.06
- viability (Navitoclax; 2 µM): 1.06
- viability (I-BET-762; 0.008 µM): 1.08
- viability (I-BET-762; 0.04 µM): 0.956
- viability (I-BET-762; 0.2 µM): 0.889
- viability (I-BET-762; 1 µM): 0.822
- viability (I-BET-762; 5 µM): 0.768
- viability (CPI-169; 0.024 µM): 1.04
- viability (CPI-169; 0.12 µM): 1.03
- viability (CPI-169; 0.6 µM): 1.12
- viability (CPI-169; 3 µM): 1.07
- viability (CPI-169; 15 µM): 1.1
- viability (Roscovitine; 0.032 µM): 1.01
- viability (Roscovitine; 0.16 µM): 1.56
- viability (Roscovitine; 0.8 µM): 1.01
- viability (Roscovitine; 4 µM): 1.6
- viability (Roscovitine; 20 µM): 1.37
- viability ([1]; 0.024 µM): 0.918
- viability ([1]; 0.12 µM): 0.926
- viability ([1]; 0.6 µM): 1.06
- viability ([1]; 3 µM): 0.961
- viability ([1]; 15 µM): 0.974
- viability (Everolimus; 0.0032 µM): 0.819
- viability (Everolimus; 0.016 µM): 0.837
- viability (Everolimus; 0.08 µM): 0.787
- viability (Everolimus; 0.4 µM): 0.848
- viability (Everolimus; 2 µM): 0.8
- viability (Idasanutlin (RS7388); 0.032 µM): 1.28
- viability (Idasanutlin (RS7388); 0.16 µM): 1.01
- viability (Idasanutlin (RS7388); 0.8 µM): 1.09
- viability (Idasanutlin (RS7388); 4 µM): 1.31
- viability (Idasanutlin (RS7388); 20 µM): 1
- viability (Etoposide; 0.032 µM): 1
- viability (Etoposide; 0.16 µM): 1.22
- viability (Etoposide; 0.8 µM): 1.3
- viability (Etoposide; 4 µM): 1.05
- viability (Etoposide; 20 µM): 1.12
- viability (Tofacitinib; 0.024 µM): 0.965
- viability (Tofacitinib; 0.12 µM): 0.944
- viability (Tofacitinib; 0.6 µM): 0.917
- viability (Tofacitinib; 3 µM): 0.939
- viability (Tofacitinib; 15 µM): 0.823
- viability (Duvelisib; 0.0016 µM): 1.01
- viability (Duvelisib; 0.008 µM): 1.03
- viability (Duvelisib; 0.04 µM): 0.93
- viability (Duvelisib; 0.2 µM): 0.981
- viability (Duvelisib; 1 µM): 0.831
- viability (Pomalidomide; 0.0032 µM): 0.921
- viability (Pomalidomide; 0.016 µM): 1.07
- viability (Pomalidomide; 0.08 µM): 1.11
- viability (Pomalidomide; 0.4 µM): 0.957
- viability (Pomalidomide; 2 µM): 1.04
- viability (Filgotinib; 0.024 µM): 0.996
- viability (Filgotinib; 0.12 µM): 0.835
- viability (Filgotinib; 0.6 µM): 0.971
- viability (Filgotinib; 3 µM): 0.909
- viability (Filgotinib; 15 µM): 0.469
- viability (Thalidomide; 0.032 µM): 0.924
- viability (Thalidomide; 0.16 µM): 0.966
- viability (Thalidomide; 0.8 µM): 0.953
- viability (Thalidomide; 4 µM): 0.98
- viability (Thalidomide; 20 µM): 0.919
